Assay results as given in patent US8216777B2, “Compositions and methods for the treatment or prevention of chemoresistant neoplasia” (The Johns Hopkins University, priority 2006, dated 2012).

Columns and labels:
[1] = test system: Nrf2; assay: ARE-luciferase transcriptional reporter assay; format: cell-based, mice; settings: Hepa cells stably transfected with pARE-luc; 5, 10, 50 μM
Procedure: In this example, a high throughput approach to screen different chemicals for their potency to inhibit Nrf2 activation is described. A cell based transcriptional reporter assay approach was used for the identification of agents that inhibit Nrf2 mediated transcription. Hepa cells, which are mice liver carcinoma cells, were stably transfected with the ARE-luciferase reporter vector, and plated on to 96 or […] well plates. After overnight incubation, the cells were pretreated for 1-3 hours with different compounds, and challenged with a known Nrf2 activator, sulforaphane and dibenzoylmethane (DBM). Luciferase activity was measured after 6 hours following the last treatment using a commercially available system.

[2] = test system: Nrf2 mRNA; assay: Nrf2 transcript degradation after siRNA transfection, real time TAQMAN PCR; format: cell-based, human; settings: A549; for relative potency among the Nrf2 siRNA duplexes: Nrf2 transcript, 24 and 48 hours
Procedure: To study the degradation of Nrf2 mRNA with siRNA in a time dependent manner, a pooled mixture of the generated duplexes were transfected into A549 human non-small cell lung carcinoma cell line. As a control, a non-specific scrambled siRNA duplex (SC) was used. Transfection vehicle alone was also used as control. Total RNA was isolated after 24, 48 and 72 hours. The amount of Nrf2 transcript was measured using real time TAQMAN PCR. […] These five ND duplexes were again screened using the same assay to measure amount of Nrf2 transcript as described above.
Total RNA was extracted from lung tissues and or cells using RNeasy kit (Qiagen, Valencia Calif.) and was quantified by UV absorbance spectrophotometry. The reverse transcription reaction was performed by using the Superscript First Strand Synthesis system (Invitrogen, Carlsbad Calif.) in a final volume of 20 μl containing 2 μg of total RNA, 100 ng of random hexamers, 1× reverse transcription buffer, 2.5 mM MgCl2, 1 mM dNTP, 10 units of RNaseOUT, 20 units of Superscript reverse transcriptase, and DEPC-treated water. Quantitative real time RT-PCR analyses of Human KEAP1, NRF2, GCLc, GCLm, GSR, PRDX1, GSTA3, GSTA2, NQO1, MRP1 and MRP2 were performed by using assay on demand primers and probe sets from Applied Biosystems. Assays were performed by using the ABI 7000 Taqman system (Applied Biosystems, Foster City Calif.). β-ACTIN was used for normalization.
The siRNA sequence targeting NRF2 corresponds to the coding region 1903-1921 nt (5′-[…]-3′; SEQ ID NO:27) in the NRF2 cDNA. The NRF2 siRNA duplex with the following sense and antisense sequences was used: 5′-GUAAGAAGCCAGAUGUUAAdUdU (sense; SEQ ID NO:50) and dUd[…]-5′ (antisense; SEQ ID NO:28). To confirm the specificity of the inhibition, the siCONTROL non-targeting siRNA 1 (NS siRNA; 5′[…] 3′; SEQ ID NO:29) with microarray-defined signature was used as a negative control. All of the siRNA duplexes were synthesized by Dharmacon Research, Inc. (Lafayette). Cells in the exponential growth phase were plated at a density of 0.2×10^6 cells/ml, grown for 12 h, and transfected twice at an interval of 48 h with 50 nM siRNA duplexes using Lipofectamine 2000 and OPTI-MEMI reduced serum medium (Invitrogen, Carlsbad Calif.) according to the manufacturer's recommendations. Concentrations of siRNAs were chosen on the basis of dose-response studies.

[3] = test system: Renca renal carcinoma cells; assay: cells; format: cell-based
From the text: The effect of Nrf2 siRNA on the killing of Renca renal carcinoma cells was examined using etoposide, another widely used anticancer drug. To generate stable Renca cell lines that over-expressed Nrf2 siRNA and non-specific scramble siRNA (SC siRNA), the siRNA sequence was converted into short hairpin RNA (shRNA) and cloned in to a BLOCK-IT U6 RNAi Entry Vector (Invitrogen). The shRNA construct was packaged into a lentiviral vector, and transduced into Renca cell lines. Recombinants were selected with antibiotic. Renca cells stably expressing Nrf2 siRNA and non-specific LacZ siRNA were screened, and two clones expressing Nrf2 siRNA showing maximum knockdown of Nrf2 message were selected for further characterization. A cell viability assay was performed using these clones using etoposide as the chemotherapeutic drug. […] Cell viability was measured using the MTT [3-(4,5-dimethylthiazol-2-yl)-2,5-diphenyltetrazolium bromide] assay after 48 hours. Briefly, cells were transfected with 50 nM siRNAs two times within a 48 h interval and, 24 hours after the second transfection, cells were plated at a density of 7,500 cells/well in 180 μl of growth media in 96-well plates. […] After 96 h, drug cytotoxicity was evaluated by using a 3-(4,5-dimethylthiazol-2-yl)-2,5-diphenyl tetrazolium bromide (MTT; Sigma) reduction conversion assay. […]

For C[S+]([O-])CCCCN=C=S (stereo not drawn) [sulforaphane], the luciferase activity [1] was “increase in luciferase activity”.
In the case of “ND5: siRNA duplex, Nrf2 mRNA position 1485-1463; antisense SEQ ID NO: 4 UUCAUCUCUUGUGAGAUGAGCCUCC, sense SEQ ID NO: 8 (sense GGAGGCUCAUCUCACAGAGAUGAA; listed as RNA, chemistry not given here)”, the “relative potency among the Nrf2 siRNA duplexes” value [2] is reported as “most potent”.
With “ND4: siRNA duplex, Nrf2 mRNA position 1563-1581; sense SEQ ID NO: 3 AUGAUGUCCAAAGAGCAGUUU, antisense SEQ ID NO: 7 (antisense ACUGCUCUUUGGACAUCAUUU; listed as RNA, chemistry not given here)” the “relative potency among the Nrf2 siRNA duplexes” value [2] was “most potent”.
COc1cc([C@@H]2c3cc4c(cc3[C@@H](O[C@@H]3O[C@@H]5CO[C@@H](C)O[C@H]5[C@H](O)[C@H]3O)[C@H]3COC(=O)[C@H]23)OCO4)cc(OC)c1O [Etoposide, etoposide] was tested, and the viability at 250 µM ([3]; Renca, read-out: viable cells) was roughly 100% and the viability ([3]; mouse, 48 h, 250 μM) was −60%.
“ND1: siRNA duplex, Nrf2 mRNA (NM_006164) position 1686-1704; sense SEQ ID NO: 1 CUAGAGCAAGAUUUAGAUCUU, antisense SEQ ID NO: 5 (antisense GAUCUAAAUCUUGCUCUAGUU; listed as RNA, chemistry not given here)” was tested, and the “relative potency among the Nrf2 siRNA duplexes” value [2] was “most potent”.
For “ND3: siRNA duplex, Nrf2 mRNA position 1903-1921; sense SEQ ID NO: 2 GUAAGAAGCCAGAUGUUAAUU, antisense SEQ ID NO: 6 (antisense UUAACAUCUGGCUUCUUACUU; listed as RNA, chemistry not given here)”, the “relative potency among the Nrf2 siRNA duplexes” value [2] was “most potent” and the “degradation of Nrf2 message” value ([2]; after 24 and 48 hours, individual duplexes) was “maximum message degradation”.
In the case of O=C(CC(=O)c1ccccc1)c1ccccc1 [dibenzoylmethane], the luciferase activity [1] is reported as “increase in luciferase activity”.
